Measurements published in ChEMBL document CHEMBL1145763, “Design, synthesis and photochemical properties of caged bile acids” (Bioorg Med Chem Lett, 2003).
Values after ≈ are worked out from the molar mass of the structure shown.

Assay: Solubility in 100 mM Tris pH(8.5)/ 30% PEG 6000/200 mM NaOAc
Type: physicochemical

SMILES: COc1cc(CO[C@@H]2CC[C@@]3(C)C(C2)C[C@@H](O)[C@H]2[C@@H]4CC[C@H]([C@H](C)CCC(=O)O)[C@@]4(C)[C@@H](O)C[C@@H]23)c([N+](=O)[O-])cc1OC (some centres undefined)
- solubility: 1000 µM (≈ 604 µg/mL)

SMILES: C[C@H](CCC(=O)NCC(=O)O)[C@H]1CC[C@H]2[C@@H]3[C@H](O)CC4C[C@H](OCc5ccccc5[N+](=O)[O-])CC[C@]4(C)[C@H]3CC[C@]12C (some centres undefined)
- solubility: 4000 µM (≈ 2340 µg/mL)

SMILES: C[C@H](CCC(=O)O)[C@H]1CC[C@H]2[C@@H]3[C@H](O)CC4C[C@H](OCc5ccccc5[N+](=O)[O-])CC[C@]4(C)[C@H]3CC[C@]12C (some centres undefined)
- solubility: 5000 µM (≈ 2640 µg/mL)

SMILES: C[C@H](CCC(=O)O)[C@H]1CC[C@H]2[C@@H]3[C@H](O)CC4C[C@H](OCc5ccccc5[N+](=O)[O-])CC[C@]4(C)[C@H]3C[C@H](O)[C@]12C (some centres undefined)
- solubility: 2000 µM (≈ 1090 µg/mL)
